Experimental data as given in US12692246B2, “Solid form of a bradykinin B2-receptor antagonist” (PHARVARIS GMBH, priority 2021, dated 2026).

Columns and labels:
Type in all cases: physicochemical
[1] = Mixed solvent cooling crystallization trials (solubility in six solvents); conditions: 200 mg amorphous material; MeOH, MeCN, MEK, THF, EtOAc, TBME; solutions at 0.5 vol., 25° C., ca. 66 hours equilibration
Protocol: Amorphous (S)—N-(1-deutero-1-(3-chloro-5-fluoro-2-((2-methyl-4-(1-methyl-1H-1,2,4-triazol-5-yl)quinolin-8-yloxy)methyl)phenyl)ethyl)-2-(difluoromethoxy)acetamide, 6×200 mg, was weighed into crystallisation tubes and charged with solvents (MeOH, MeCN, MEK, THE, EtOAc and TBME) in 0.05 ml (0.25 vol.) aliquots at 25° C. […] Additional solvent (made up to 0.5 vol.) yielded thick yellow solutions. The solutions were equilibrated at 25° C. for ca. 66 hours though this had no impact on the yellow solutions.
Additional solvent was charged to each API solution up to 1 ml (5 vol.) and the solutions were heated to 40° C. and clarified. Heptane was charged in 50 μL aliquots to each solution before cooling to 25° C. over 1 hour. The volume charged and observations at 40 and 25° C. are detailed in Table 3.

[2] = Slow evaporative crystallisation trials (solubility observed in solvents)
Protocol: Into crystallisation tubes (5 ml vol) was charged 20 mg of amorphous (S)—N-(1-deutero-1-(3-chloro-5-fluoro-2-((2-methyl-4-(1-methyl-1H-1,2,4-triazol-5-yl)quinolin-8-yloxy)methyl)phenyl)ethyl)-2-(difluoromethoxy)acetamide. A total of 26 solvents or solvent mixtures were charged to the tubes and the solids agitated over a period of 48 hours at RT and cooled to 0° C.
Slow evaporative crystallisation trials were continued by transferring samples to smaller tapered tubes without agitation and needle bleeds fitted. Slow evaporative crystallisation was attempted with scratching at various points to help induce crystallisation.
Following two weeks, liquors remained in most cases with no evidence of crystallisation. At this point heteronuclear seeding was attempted with a very similar crystalline API source. This had no impact upon the results. The majority of test cases returned clear glasses.

[3] = Gravimetric Vapour Sorption (GVS); conditions: 25° C.
Protocol: Sorption isotherms were obtained using a Hiden Isochema moisture sorption analyser (model IGAsorp), controlled by IGAsorp Systems Software V6.50.48. The sample was maintained at a constant temperature (25° C.) by the instrument controls. The humidity was controlled by mixing streams of dry and wet nitrogen, with a total flow of 250 ml.min^−1. The instrument was verified for relative humidity content by measuring three calibrated Rotronic salt solutions (10-50-88%). The weight change of the sample was monitored as a function of humidity by a microbalance (accuracy+/−0.005 mg). A defined amount of sample was placed in a tared mesh stainless steel basket under ambient conditions. A full experimental cycle typically consisted of three scans (sorption, desorption and sorption) at a constant temperature (25° C.) and 10% RH intervals over a 0-90% range (60 minutes for each humidity level).

Compound: [2H][C@@](C)(NC(=O)COC(F)F)c1cc(F)cc(Cl)c1COc1cccc2c(-c3ncnn3C)cc(C)nc12 [(S)—N-(1-deutero-1-(3-chloro-5-fluoro-2-((2-methyl-4-(1-methyl-1H-1,2,4-triazol-5-yl)quinolin-8-yloxy)methyl)phenyl)ethyl)-2-(difluoromethoxy)acetamide]
- solubility in the 6 solvents investigated [1]: high solubility
- solubility in solvents ([2]; 20 mg amorphous material, 26 solvents or solvent mixtures, agitated 48 hours at RT and cooled to 0° C., in the majority of solvents): extreme solubility
- solubility in solvents (continued trials) ([2]; continued slow evaporation without agitation, scratching, heteronuclear seeding, 3 weeks): extreme solubility

Compound: [2H][C@@](C)(NC(=O)COC(F)F)c1cc(F)cc(Cl)c1COc1cccc2c(-c3ncnn3C)cc(C)nc12 [Form A, (S)—N-(1-deutero-1-(3-chloro-5-fluoro-2-((2-methyl-4-(1-methyl-1H-1,2,4-triazol-5-yl)quinolin-8-yloxy)methyl)phenyl)ethyl)-2-(difluoromethoxy)acetamide monohydrate]
- GVS overall weight change ([3]; between 0 and 90% RH): ca. 1.9 wt %
- GVS hysteresis ([3]; between 10 and 80% RH): 0.2-0.4 wt %
